# Results taken from patent publication EP0252983B1, “SALTS OF N-(VINYLOXIETHYL)DITHIOCARBAMIC ACID, METHOD OF OBTAINING THEREOF AND […] ON THEM” (priority 1985, dated 1987).
# How the values were obtained:
# Acremonium charticola = assay: Mycelial growth inhibition on agar (contact activity); assay type: cell-based; conditions: Acremonium charticola, 120 h, Würzeagar, read-out: Myzelhemmung in %
# Experimental: (§1) Die Prüfungen werden nach dem Verfahren zur Ermittlung der Kontaktaktivität durchgeführt. Man verwendet das in Wasser gelöste Kalium-N-(vinyloxyäthyl)dithiocarbamat, führt es in ein Nährmedium ein und vergießt auf Petri-Schalen. Nach 24 Stunden wird mit Pilzmyzelium nach einem Stichverfahren geimpft. Dann temperiert man die Schalen innerhalb von 5 Tagen bei einer zwischen 24 und 26 °C liegenden Temperatur und mißt den Durchmesser von Pilzkolonien, ermittelt den Prozentsatz der Hemmung des Myzelwachstums (S) ausgehend von Angaben am 5. Tag nach der Abbott-Formel [drawing 13] worin dc für den Durchmesser der Pilzkolonien, de für den Durchmesser von Pilzkolonien in der Schale stehen, wo ein die zu prüfenden Stoffe enthaltendes Medium vorhanden ist. Dieses Verfahren zur Ermittlung der mikrobiologischen Aktivität ist in anderen Beispielen verwendet.
# (§2) Die Pilzkulturen werden auf Würzeagar gezüchtet. Ergebnisse, erhalten bei der Prüfung der fungiziden Aktivität gegen reine Kulturen von Mikroorganismen, welche Bioschädigungen hervorrufen, sind in der Tabelle 1 dargestellt.
# Acremonium cowum = assay: as above; assay type: cell-based; conditions: 120 h, Würzeagar, read-out: Myzelhemmung in %
# Experimental: as §1, §2
# [1] = tested on: Cladosporium cladosporioides; assay: as above; assay type: cell-based; conditions: Cladosporium cladosporioides, 120 h, Würzeagar, read-out: Myzelhemmung in %
# Experimental: as §1, §2
# Cladosporium resinae = assay: as above; assay type: cell-based; conditions: Amorphotheca resinae, 120 h, Würzeagar, read-out: Myzelhemmung in %
# Experimental: as §1, §2
# Geotrichum candidum Link = assay: as above; assay type: cell-based; conditions: Würzeagar
# Experimental: as §1, §2
# Oidium Sp. = assay: as above; assay type: cell-based; conditions: Würzeagar
# Experimental: as §1, §2
# Penicillium charlesii = assay: as above; assay type: cell-based; conditions: Penicillium charlesii, 120 h, Würzeagar, read-out: Myzelhemmung in %
# Experimental: as §1, §2
# Penicillium chrysogenum = assay: as above; assay type: cell-based; conditions: Würzeagar
# Experimental: as §1, §2
# Walrotiela subiculesa = assay: as above; assay type: cell-based; conditions: 120 h, Würzeagar, read-out: Myzelhemmung in %
# Experimental: as §1, §2
# Helminthosporium sativum = assay: Barley seed dressing against root rot (helminthosporiosis); assay type: in vivo; conditions: Aufwandmenge von 1 g/kg
# Experimental: Die Aktivität der Verbindung gegen Wurzelfäule (Helminthosporiose) der Gerste wurde unter Laborbedingungen untersucht. Gerstensamen, infiziert mit einer 7 Tage alten Pizkultur Helminthosporium sativum, wurden durch Präparaten ausgehend von 1 g Präparat (bezogen auf den Wirkstoff) je 1 kg Samen nach einem halbtrockenen Verfahren gebeizt, in Aufzuchträume mit befeuchtetem Sand gesät und innerhalb von 11 bis 14 Tagen bei einer zwischen 20 und 22 °C gehalten. Am 14 Tag schätzte man die Keimfähigkeit von Gerstensamen ein und ermittelte die Quote von durch Helminthosporiose befallenen Pflanzen. Die Prüfergebnisse sind in der Tabelle 4 dargestellt.
# Larven von Fichtenböcken = assay: Insecticidal activity, topical application to larvae; assay type: in vivo, Fichtenböcke; conditions: 10%ige Lösung
# From the text: Die hohe insektizide Aktivität von Kalium-N-(vinyloxyathyl)dithiocarbamat und Zink-bis-(N-vinyloxyathyl- dithiocarbamat) wurde in Versuchen an Larven von Fichtenböcken nachgewiesen. Geprüft wurden die 10%igen wäßrigen (oder alkoholischen) Lösungen, welche auf die Kopfbrust von Larven aufgebracht wurden. In Versuchen standen je 20 Larven zur Verfügung. Die Versuche wurden dreimal wiederholt. Die Mortalität wurde nach 1, 24 und 48 Stunden ermittelt. Die insektizide Aktivität der erfindungsgemäßen Stoffe ist bedeutend höher als die von Chlorophos.
# Die Prüfungen auf insektizide Aktivität werden an Larven von Fichtenböcken durchgeführt. Geprüft werden eine 10%ige wäßrige Lösung von Kalium-N-(vinyloxyäthyl)dithiocarbamat und eine 10%ige alkoholische Lösung von Zink-bis-N-(vinyloxyathyldithiocarbamat). In jedem Versuch stehen je 20 Larven zur Verfügung. Die Mortalität wird nach 1, 24 und 48 Stunden ermittelt. Die zu prüfenden Lösungen werden auf die Kopfbrust von Larven aufgebracht.
# [2] = Solubility in water (descriptive); assay type: physicochemical
# [3] = Storage stability (descriptive); assay type: physicochemical
# [4] = tested on: Cladosporium cladosporioides; assay: Mycelial growth inhibition on agar (contact activity); assay type: cell-based; conditions: Cladosporium cladosporioides, 120 h; Präparatkonzentration 0,006 %; Würzeagar; read-out: Myzelhemmung in %
structure (smiles),measurement,setting,value
C=COCCNC(=S)S [Kalium-N-(vinyloxyäthyl)dithiocarbamat],inhibition of growth at 0.003 %,"Acremonium charticola; Präparatkonzentration 0,003 %",100%
same,inhibition of growth at 0.006 %,"Acremonium charticola; Präparatkonzentration 0,006 %",100%
same,inhibition of growth at 0.012 %,"Acremonium charticola; Präparatkonzentration 0,012 %",100%
same,inhibition of growth at 0.0015 %,"Acremonium cowum; Präparatkonzentration 0,0015 %",100%
same,inhibition of growth at 0.012 %,"Acremonium cowum; Präparatkonzentration 0,012 %",100%
same,inhibition of growth at 0.0015 %,"[1]; Präparatkonzentration 0,0015 %",100%
same,inhibition of growth at 0.003 %,"[1]; Präparatkonzentration 0,003 %",100%
same,inhibition of growth at 0.012 %,"[1]; Präparatkonzentration 0,012 %",100%
same,inhibition of growth at 0.0015 %,"Cladosporium resinae; Präparatkonzentration 0,0015 %",100%
same,inhibition of growth at 0.003 %,"Cladosporium resinae; Präparatkonzentration 0,003 %",100%
same,inhibition of growth at 0.006 %,"Cladosporium resinae; Präparatkonzentration 0,006 %",100%
same,inhibition of growth at 0.012 %,"Cladosporium resinae; Präparatkonzentration 0,012 %",100%
same,inhibition of growth at 0.012 %,"Geotrichum candidum Link; Geotrichum candidum, 120 h, Präparatkonzentration 0,012 %, read-out: Myzelhemmung in %",100%
same,Myzelhemmung in %,"Geotrichum candidum Link; Präparatkonzentration 0,0015 %",30%
same,Myzelhemmung in %,"Geotrichum candidum Link; Präparatkonzentration 0,003 %",100%
same,Myzelhemmung in %,"Geotrichum candidum Link; Präparatkonzentration 0,006 %",100%
same,inhibition of growth at 0.003 %,"Oidium Sp.; 120 h, Präparatkonzentration 0,003 %, read-out: Myzelhemmung in %",100%
same,inhibition of growth at 0.006 %,"Oidium Sp.; 120 h, Präparatkonzentration 0,006 %, read-out: Myzelhemmung in %",100%
same,inhibition of growth at 0.012 %,"Oidium Sp.; 120 h, Präparatkonzentration 0,012 %, read-out: Myzelhemmung in %",100%
same,Myzelhemmung in %,"Oidium Sp.; Präparatkonzentration 0,0015 %",96%
same,inhibition of growth at 0.0015 %,"Penicillium charlesii; Präparatkonzentration 0,0015 %",30%
same,inhibition of growth at 0.003 %,"Penicillium charlesii; Präparatkonzentration 0,003 %",55%
same,inhibition of growth at 0.006 %,"Penicillium charlesii; Präparatkonzentration 0,006 %",90%
same,inhibition of growth at 0.012 %,"Penicillium charlesii; Präparatkonzentration 0,012 %",100%
same,inhibition of growth at 0.003 %,"Penicillium chrysogenum; Penicillium chrysogenum, 120 h, Präparatkonzentration 0,003 %, read-out: Myzelhemmung in %",26%
same,inhibition of growth at 0.006 %,"Penicillium chrysogenum; Penicillium chrysogenum, 120 h, Präparatkonzentration 0,006 %, read-out: Myzelhemmung in %",93%
same,inhibition of growth at 0.012 %,"Penicillium chrysogenum; Penicillium chrysogenum, 120 h, Präparatkonzentration 0,012 %, read-out: Myzelhemmung in %",100%
same,Myzelhemmung in %,"Penicillium chrysogenum; Präparatkonzentration 0,0015 %",15%
same,inhibition of growth at 0.0015 %,"Walrotiela subiculesa; Präparatkonzentration 0,0015 %",100%
same,inhibition of growth at 0.003 %,"Walrotiela subiculesa; Präparatkonzentration 0,003 %",100%
same,inhibition of growth at 0.006 %,"Walrotiela subiculesa; Präparatkonzentration 0,006 %",100%
same,inhibition of growth at 0.012 %,"Walrotiela subiculesa; Präparatkonzentration 0,012 %",100%
same,Wirksamkeit als Beizmittel gegenüber Vergleichsmuster (TMTD und Polykarbazin),Helminthosporium sativum,zweimal wirksamer
same,Mortalität von Larven der Fichtenböcke,Larven von Fichtenböcken; Wirkungsdauer 1 Stunde,20%
same,Mortalität von Larven der Fichtenböcke,Larven von Fichtenböcken; Wirkungsdauer 24 Stunden,100%
same,Mortalität von Larven der Fichtenböcke,Larven von Fichtenböcken; Wirkungsdauer 48 Stunden,100%
same,Löslichkeit in Wasser,[2],gut
same,Lagerbeständigkeit,[3],lagerbeständig
same,inhibition of growth at 0.006 %,[4],100%
